# Data from patent US20050063903A1, “Combined use of cruciferous indoles and chelators for the treatment of papilloma virus-related conditions” (priority 2003, published 2005).
# Columns and labels:
# tumor tissue = assay: Ga-67 SPECT scan in patients with oropharyngeal squamous cell cancer; format: in vivo, human; conditions: 8 millicuries intravenous
# From the text: In order to reduce radiation-related side effects use of both conventional radiation and Cyberknife radiosurgery (Accuray, Sunnyvale, Calif.) were employed together with intravenous and oral DIM and intravenous Ga-67 isotope and Gallium nitrate. This combined approach allowed reduction of the total radiation dose from 7000 cGy to 3500 cGy. On the first treatment day the patient underwent Computerized Tomography (CT) with intravenous omnipaque to enhance 3 dimensional definition of the tumor mass. This was followed by a Ga-67 SPECT scan involving administration of 8 millicuries of Gallium-67 Citrate isotope (Cardinal Health, Denver, Colo.).
# On the first treatment day the patient, weighing 50 kg, underwent Computerized Tomography (CT) with intravenous omnipaque to enhance the 3 dimensional definition of the recurrent tumor mass. This was followed by a Ga-67 SPECT scan involving administration of 8 millicuries of Gallium-67 isotope (Cardinal Health, Denver, Colo.).
# [1] = system: papillomavirus altered cervical cancer cell lines; conditions: cell culture; cited from earlier work
# CaSki cells = assay: MTS mitochondrial function assay, loss of cell viability, 72 hour cultures; format: cell-based, human; conditions: for Pa Effect Alone: Pa 2.5 mM; for SY Effect Alone: SY 150 μM
# Description: (§1) In vitro cell culture experiments were performed to investigate the induction of apoptosis by combinations of Diindolylmethane (DIM), Silybin (SY), Picolinic Acid (PA), Sodium Butyrate (BA), and Gallium Nitrate (Ga) in relevant cervical cancer cells. The cell lines CaSki (containing multiple copies of integrated HPV16 DNA), C33A (HPV negative with mutant p53), were utilized. Cells were maintained and assays for apoptosis induction performed as previously described (Chen D Z, Qi M, Auborn K J and Carter T H, Indole-3-carbinol and diindolylmethane induce apoptosis of human cervical cancer cells and in murine HPV 16-transgenic preneoplastic cervical epithelium. J Nutr. 2001 December;131(12):3294-302). Novel combinations of DIM and various Iron/Zinc chelators were tested to assess and document greater than additive (synergistic) apoptosis-related activity in controlled 72 hour cultures.
# (§2) The primary assay for apoptosis-related loss of cell viability was the mitochondrial function assay [reduction of 3-(4,5-dimethylthiazol-2-yl)-5-(3-carboxymethoxyphenyl)-2-(4-sulfophenyl)-2H-tetrazolium (MTS)] using a MTS kit (Promega, Madison, Wis.). A minimum of 4 replicate wells per condition were studied and absorbance at […] of the solution in individual wells was determined with a multi-well plate reader. Data were analyzed by plotting the mean and SD of cell viability versus concentration of DIM, Iron/Zinc chelator or other growth inhibitors.
# (§3) Using doses for each agent at or below the ID50 levels, synergistic, apoptosis-related, reductions in cell viability were documented for both combinations of DIM and Iron disrupting compounds and for combinations of DIM and Zinc disrupting compounds. Results showing percent reductions of cell viability using the MTS assay for individual agents, combined effects, and extent of synergism are summarized in the following tables and FIGS. 1-3.
# C33A cells = assay: as above; format: cell-based, human
# Description: as §1, §2, §3
# [2] = cited from earlier work
# [3] = log cumulative stability constant; cited from earlier work
# [4] = log cumulative stability constant; cited from earlier work; remark: listed apart in the source
# [5] = system: virus infected skin cells (HIV-1, HSV-2); conditions: cited from earlier work
# [6] = log cumulative stability constant; cited from earlier work; remark: listed apart in the source
# Vaccinia virus = conditions: monkey kidney cells; cited from earlier work
# cervical dysplasia = conditions: treated for 3 months; cited from earlier work
smiles,measurement,setting,value
O=C([O-])CC(O)(CC(=O)[O-])C(=O)[O-].[67Ga+3] [Gallium-67 Citrate],Uptake of Gallium by the tumor tissue in the scan,tumor tissue,preferential uptake
"c1ccc2c(Cc3c[nH]c4ccccc34)c[nH]c2c1 [DIM, 3,3′-diindolylmethane]",Concentration required for activity (markers of apoptosis),[1],50 µM
same,DIM Effect Alone,"CaSki cells; DIM 50 μM, Table II",−26%
same,DIM Effect Alone,"CaSki cells; DIM 75 μM, Table II",−46%
same,DIM Effect Alone,"CaSki cells; DIM 75 uM, Table III",−19%
same,DIM Effect Alone,"CaSki cells; DIM 75 μM, Table IV",−46%
same,DIM Alone 75 uM,"CaSki cells; DIM 75 uM, Table V",−19%
same,DIM Effect Alone,"CaSki cells; DIM 100 uM, Table III",−21%
same,DIM Effect Alone,"C33A cells; DIM 25 μM, reduction of cell viability",−8%
"O=C(O)c1ccccn1 [Picolinic acid, pyridine-2-carboxylic acid]",Lipid Solubility,[2],High
same,Logβ-Fe^III,[3],12.8
same,Pa Effect Alone,CaSki cells; Table III line with DIM 75 uM,−13%
same,Pa Effect Alone,CaSki cells; Table III line with DIM 100 uM,−13%
same,Logβ-Zn^II,[4],12.9
same,Concentration required in cell culture when used alone,"[5]; U.S. Pat. No. 6,410,570",3 mM
same,Concentration required for slowing of growth and diminished viability,[5]; virus infected skin cells,"3,000 micromolar"
"c1ccc(-c2ccccn2)nc1 [BIP, 2,2′-bypryidyl]",Logβ-Fe^III,[3],16.3
same,Logβ-Ga^II,[6],7.7
same,Logβ-Zn^II,[4],13.2
same,Concentrations shown to inhibit Vaccinia virus replication and ribonucleotide reductase,Vaccinia virus,60 to 80 µM
"OCc1c[nH]c2ccccc12 [I3C, indole-3-carbinol]",Women with partial improvement,cervical dysplasia,about 50%
"CC(=O)N(O)CCCCCNC(=O)CCC(=O)N(O)CCCCCNC(=O)CCC(=O)N(O)CCCCCN [DFO, Desferrioxamine]",Lipid Solubility,[2],Low
same,Logβ-Fe^III,[3],30.5
same,Logβ-Ga^II,[6],27.6
same,Logβ-Zn^II,[4],11.1
"CCCC(=O)[O-].[Na+] [BU, butyric acid sodium salt]",BU Effect Alone,"CaSki cells; BU 150 μM, Table IV",−15%
"COc1cc(C2Oc3cc([C@H]4Oc5cc(O)cc(O)c5C(=O)[C@@H]4O)ccc3OC2CO)ccc1O (some centres unmarked) [Silybin, 3,5,7,-trihydroxy-2-[3-(4-hydroxy-3-methoxyphenil)-2-hydroxymethyl-1,4-benxodioxan-6-il]-chronan-4-one]",Logβ-Fe^III,[3],41.5
same,SY Effect Alone,CaSki cells; Table II line with DIM 50 μM,−4%
same,SY Effect Alone,CaSki cells; Table II line with DIM 75 μM,−8%
same,Sy Alone 150 uM,"CaSki cells; Sy 150 uM, Table V",−5%
same,SY Effect Alone,C33A cells; SY 150 μM,−54%
"O=C(O)CN(CCN(CC(=O)O)CC(=O)O)CC(=O)O [EDTA, ethylenediaminetetraacetic acid]",Logβ-Fe^III,[3],25.1
same,Logβ-Ga^II,[6],21.0
same,Logβ-Zn^II,[4],16.5
"Cc1c(O)c(=O)ccn1C [L1, 1,2-Dimethyl-3-hydroxypyrid-4-one]",Lipid Solubility,[2],Moderate
same,Logβ-Fe^III,[3],37.2
same,Logβ-Ga^II,[6],32.6
same,Logβ-Zn^II,[4],13.5
